Biological target: Human factor D (Homo sapiens (Human), UniProt P00746)
Assay: Human Factor D Assay
Format: biochemical
Conditions: human factor D 80 nM, substrate Z-L-Lys-SBzl, DTNB, OD405
Protocol: Human factor D (purified from human serum, Complement Technology, Inc.) at 80 nM final concentration is incubated with test compound at various concentrations for 5 minutes at room temperature in 50 mM Tris, 1M NaCl, pH 7.5. A synthetic substrate Z-L-Lys-SBzl and DTNB (Ellman's reagent) are added to final concentrations of 10 μM each. The increase in color is recorded at OD405 nm in a microplate in kinetic mode over 30 minutes with 30 second time points in a […]. IC50 values are calculated by non-linear regression from the percentage of inhibition of complement factor D activity as a function of test compound concentration.

Chain of Human factor D (P00746 26-253): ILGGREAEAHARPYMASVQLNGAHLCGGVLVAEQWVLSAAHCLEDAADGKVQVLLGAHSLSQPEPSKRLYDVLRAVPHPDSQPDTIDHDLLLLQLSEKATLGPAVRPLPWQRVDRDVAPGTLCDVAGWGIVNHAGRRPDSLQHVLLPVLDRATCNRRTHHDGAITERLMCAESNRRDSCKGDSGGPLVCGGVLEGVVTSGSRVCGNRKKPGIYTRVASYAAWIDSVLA

Compound	IC50
CC(=O)n1cc(CC(=O)N2C[C@H](F)C[C@H]2C(=O)Nc2cccc(-c3ccccc3Cl)c2F)c2ccsc21 [Compound 90, (2S,4R)-1-(2-(6-acetyl-6H-thieno[2,3-b]pyrrol-4-yl)acetyl)-N-(2′-chloro-2-fluorobiphenyl-3-yl)-4-fluoropyrrolidine-2-carboxamide]	< 1000 nM
CC(=O)Nc1cccc2c1c(C(C)=O)cn2CC(=O)N1C[C@H](F)C[C@H]1C(=O)Nc1cccc(-c2ccccc2Cl)c1F [Compound 91, (2S,4R)-1-(2-(4-acetamido-3-acetyl-1H-indol-1-yl)acetyl)-N-(2′-chloro-2-fluorobiphenyl-3-yl)-4-fluoropyrrolidine-2-carboxamide]	> 10000 nM
NC(=O)c1nn(CC(=O)N2C[C@H](F)C[C@H]2C(=O)Nc2cccc(-c3ccc(F)c(F)c3Cl)c2F)c2ccccc12 [Compound 92, 1-(2-((2S,4R)-2-(2′-chloro-2,3′,4′-trifluorobiphenyl-3-ylcarbamoyl)-4-fluoropyrrolidin-1-yl)-2-oxoethyl)-1H-indazole-3-carboxamide]	< 1000 nM
CC(=O)c1cn(CC(=O)N2C[C@H](F)C[C@H]2C(=O)Nc2cccc(-c3ccc(F)c(F)c3Cl)c2F)c2ccccc12 [Compound 93, (2S,4R)-1-(2-(3-acetyl-1H-indol-1-yl)acetyl)-N-(2′-chloro-2,3′,4′-trifluorobiphenyl-3-yl)-4-fluoropyrrolidine-2-carboxamide]	< 1000 nM
NC(=O)c1nn(CC(=O)N2C[C@H](F)C[C@H]2C(=O)Nc2cccc(-c3cc(F)cc(F)c3Cl)c2F)c2ccccc12 [Compound 94, 1-(2-((2S,4R)-2-(2′-chloro-2,3′,5′-trifluorobiphenyl-3-ylcarbamoyl)-4-fluoropyrrolidin-1-yl)-2-oxoethyl)-1H-indazole-3-carboxamide]	< 1000 nM
CC(=O)c1cn(CC(=O)N2C[C@H](F)C[C@H]2C(=O)Nc2cccc(-c3cc(F)cc(F)c3Cl)c2F)c2ccccc12 [Compound 95, (2S,4R)-1-(2-(3-acetyl-1H-indol-1-yl)acetyl)-N-(2′-chloro-2,3′,5′-trifluorobiphenyl-3-yl)-4-fluoropyrrolidine-2-carboxamide]	< 1000 nM
CC(=O)c1cn(CC(=O)N2C[C@H](F)C[C@H]2C(=O)Nc2cccc(-c3ccccc3Cl)c2F)c2cccc(C#N)c12 [Compound 97, (2S,4R)-1-(2-(3-acetyl-4-cyano-1H-indol-1-yl)acetyl)-N-(2′-chloro-2-fluorobiphenyl-3-yl)-4-fluoropyrrolidine-2-carboxamide]	< 1000 nM
NC(=O)c1cn(CC(=O)N2C[C@H](F)C[C@H]2C(=O)Nc2cccc(-c3ccccc3Cl)c2F)c2sccc12 [Compound 98, 6-(2-((2S,4R)-2-(2′-chloro-2-fluorobiphenyl-3-ylcarbamoyl)-4-fluoropyrrolidin-1-yl)-2-oxoethyl)-6H-thieno[2,3-b]pyrrole-4-carboxamide]	< 1000 nM
NC(=O)c1nn(CC(=O)N2C[C@H](F)C[C@H]2C(=O)Nc2cccc(-c3ccccc3Cl)c2F)c2ccsc12 [Compound 99, 1-(2-((2S,4R)-2-(2′-chloro-2-fluorobiphenyl-3-ylcarbamoyl)-4-fluoropyrrolidin-1-yl)-2-oxoethyl)-1H-thieno[3,2-c]pyrazole-3-carboxamide]	< 1000 nM
NC(=O)c1nn(CC(=O)N2C[C@H](F)C[C@H]2C(=O)Nc2cccc(-c3c(F)cc(F)cc3Cl)n2)c2cnccc12 [Compound 100, 1-(2-((2S,4R)-2-(6-(2-chloro-4,6-difluorophenyl)pyridin-2-ylcarbamoyl)-4-fluoropyrrolidin-1-yl)-2-oxoethyl)-1H-pyrazolo[3,4-c]pyridine-3-carboxamide]	< 1000 nM
NC(=O)c1nn(CC(=O)N2C[C@H](F)C[C@H]2C(=O)Nc2cccc(-c3c(F)cc(F)cc3Cl)c2)c2cnccc12 [Compound 101, 1-(2-((2S,4R)-2-(2′-chloro-4′,6′-difluorobiphenyl-3-ylcarbamoyl)-4-fluoropyrrolidin-1-yl)-2-oxoethyl)-1H-pyrazolo[3,4-c]pyridine-3-carboxamide]	< 1000 nM
NC(=O)c1nn(CC(=O)N2C[C@H](F)C[C@H]2C(=O)Nc2cccc(-c3ccccc3Cl)c2F)c2c1CCCC2 [Compound 104, 1-(2-((2S,4R)-2-(2′-chloro-2-fluorobiphenyl-3-ylcarbamoyl)-4-fluoropyrrolidin-1-yl)-2-oxoethyl)-4,5,6,7-tetrahydro-1H-indazole-3-carboxamide]	< 1000 nM
NC(=O)c1nn(CC(=O)N2C[C@H](F)C[C@H]2C(=O)Nc2cccc(Br)n2)c2ccsc12 [Compound 106, 1-(2-((2S,4R)-2-(6-bromopyridin-2-ylcarbamoyl)-4-fluoropyrrolidin-1-yl)-2-oxoethyl)-1H-thieno[3,2-c]pyrazole-3-carboxamide]	< 1000 nM
NC(=O)c1nn(CC(=O)N2[C@@H]3C[C@@H]3C[C@H]2C(=O)NCc2cccc(Cl)c2F)c2ccsc12 [Compound 107, 1-(2-((1R,3S,5R)-3-(3-chloro-2-fluorobenzylcarbamoyl)-2-azabicyclo[3.1.0]hexan-2-yl)-2-oxoethyl)-1H-thieno[3,2-c]pyrazole-3-carboxamide]	< 1000 nM
COc1ncc(-c2cn(CC(=O)N3C[C@H](F)C[C@H]3C(=O)Nc3cccc(-c4ccccc4Cl)c3F)nc2C(N)=O)cn1 [Compound 110, 1-(2-((2S,4R)-2-(2′-chloro-2-fluorobiphenyl-3-ylcarbamoyl)-4-fluoropyrrolidin-1-yl)-2-oxoethyl)-4-(2-methoxypyrimidin-5-yl)-1H-pyrazole-3-carboxamide]	> 10000 nM
N#Cc1cccc2c(C(N)=O)nn(CC(=O)N3C[C@H](F)C[C@H]3C(=O)Nc3cccc(-c4ccccc4Cl)c3F)c12 [Compound 111, 1-(2-((2S,4R)-2-(2′-chloro-2-fluorobiphenyl-3-ylcarbamoyl)-4-fluoropyrrolidin-1-yl)-2-oxoethyl)-7-cyano-1H-indazole-3-carboxamide]	< 1000 nM
CC(=O)c1cn(CC(=O)N2C[C@H](F)C[C@H]2C(=O)Nc2cccc(-c3ccccc3Cl)c2F)c2c(-c3ccc(Cl)nc3)cccc12 [Compound 112, (2S,4R)-1-(2-(3-acetyl-7-(6-chloropyridin-3-yl)-1H-indol-1-yl)acetyl)-N-(2′-chloro-2-fluorobiphenyl-3-yl)-4-fluoropyrrolidine-2-carboxamide]	< 1000 nM
Cc1cc2c(s1)c(C(N)=O)nn2CC(=O)N1C[C@H](F)C[C@H]1C(=O)Nc1cccc(-c2ccccc2Cl)c1F [Compound 113, 1-(2-((2S,4R)-2-(2′-chloro-2-fluorobiphenyl-3-ylcarbamoyl)-4-fluoropyrrolidin-1-yl)-2-oxoethyl)-5-methyl-1H-thieno[3,2-c]pyrazole-3-carboxamide]	< 1000 nM
CC(=O)c1cn(CC(=O)N2C[C@H](F)C[C@H]2C(=O)Nc2cccc(-c3ccccc3Cl)c2F)c2c(-c3cn[nH]c3)cccc12 [Compound 114, (2S,4R)-1-(2-(3-acetyl-7-(1H-pyrazol-4-yl)-1H-indol-1-yl)acetyl)-N-(2′-chloro-2-fluorobiphenyl-3-yl)-4-fluoropyrrolidine-2-carboxamide]	< 1000 nM
CC(=O)c1cn(CC(=O)N2C[C@H](F)C[C@H]2C(=O)Nc2cccc(-c3ccccc3Cl)c2F)c2c(C3CC3)cccc12 [Compound 115, (2S,4R)-1-(2-(3-acetyl-7-cyclopropyl-1H-indol-1-yl)acetyl)-N-(2′-chloro-2-fluorobiphenyl-3-yl)-4-fluoropyrrolidine-2-carboxamide]	< 1000 nM
CC(=O)c1ccc(Cl)c(-c2cccc(NC(=O)[C@@H]3C[C@@H](F)CN3C(=O)Cn3nc(C(N)=O)c4ccccc43)c2F)c1 [Compound 117, 1-(2-((2S,4R)-2-(5′-acetyl-2′-chloro-2-fluorobiphenyl-3-ylcarbamoyl)-4-fluoropyrrolidin-1-yl)-2-oxoethyl)-1H-indazole-3-carboxamide]	< 1000 nM
Cc1cc2c(s1)c(C(N)=O)nn2CC(=O)N1C[C@H](F)C[C@H]1C(=O)Nc1cccc(Br)n1 [Compound 118, 1-(2-((2S,4R)-2-(6-bromopyridin-2-ylcarbamoyl)-4-fluoropyrrolidin-1-yl)-2-oxoethyl)-5-methyl-1H-thieno[3,2-c]pyrazole-3-carboxamide]	< 1000 nM
CC(=O)c1cn(CC(=O)N2C[C@H](F)C[C@H]2C(=O)Nc2cccc(Br)n2)c2ccc(C3(NC(=O)c4ncccn4)CC3)cc12 [Compound 119, N-(1-(3-acetyl-1-(2-((2S,4R)-2-(6-bromopyridin-2-ylcarbamoyl)-4-fluoropyrrolidin-1-yl)-2-oxoethyl)-1H-indol-5-yl)cyclopropyl)pyrimidine-2-carboxamide]	< 1000 nM
NC(=O)c1nn(CC(=O)N2C[C@H](F)C[C@H]2C(=O)Nc2cccc(-c3cc(OC(F)(F)F)ccc3Cl)c2F)c2ccccc12 [Compound 120, 1-(2-((2S,4R)-2-(2′-chloro-2-fluoro-5′-(trifluoromethoxy)biphenyl-3-ylcarbamoyl)-4-fluoropyrrolidin-1-yl)-2-oxoethyl)-1H-indazole-3-carboxamide]	< 1000 nM
NC(=O)c1cn(CC(=O)N2C[C@H](F)C[C@H]2c2nc3cc(-c4ccccc4Cl)ccc3[nH]2)c2ccccc12 [Compound 121, 1-(2-((2S,4R)-2-(5-(2-chlorophenyl)-1H-benzo[d]imidazol-2-yl)-4-fluoropyrrolidin-1-yl)-2-oxoethyl)-1H-indole-3-carboxamide]	> 10000 nM
NC(=O)c1nn(CC(=O)N2C[C@H](F)C[C@H]2C(=O)Nc2cccc(-c3ccc4[nH]cnc4c3Cl)c2F)c2ccccc12 [Compound 122, 1-(2-((2S,4R)-2-(3-(4-chloro-1H-benzo[d]imidazol-5-yl)-2-fluorophenylcarbamoyl)-4-fluoropyrrolidin-1-yl)-2-oxoethyl)-1H-indazole-3-carboxamide]	< 1000 nM
